Results as given in the NIST ThermoML archive (doi:10.1021/je060411g).

Assay: molar heat capacity at constant pressure
Conditions: 101.33 kPa

CC(C)C(C)O (stereo not given) [3-methyl-2-butanol]
Conditions | molar heat capacity at constant pressure [J/K/mol]
84.8 K, Glass | 64.32
85.35 K, Glass | 64.92
86.61 K, Glass | 65.12
87.96 K, Glass | 65.91
88.5 K, Glass | 66.12
88.57 K, Glass | 66.46
89.76 K, Glass | 68.19
90.5 K, Glass | 68.52
91.72 K, Glass | 69.65
92.44 K, Glass | 69.5
93.66 K, Glass | 70.82
94.37 K, Glass | 70.42
95.6 K, Glass | 72.69
96.3 K, Glass | 72.33
97.54 K, Glass | 73.76
98.24 K, Glass | 73.35
99.48 K, Glass | 75.44
100.17 K, Glass | 75.01
101.42 K, Glass | 76.81
102.11 K, Glass | 76.45
103.37 K, Glass | 78.23
104.06 K, Glass | 77.94
105.32 K, Glass | 79.77
106 K, Glass | 79.31
107.95 K, Glass | 80.89
109.9 K, Glass | 82.57
110.42 K, Glass | 83.46
110.85 K, Glass | 82.24
111.85 K, Glass | 84.29
112.07 K, Glass | 84.44
113.8 K, Glass | 85.97
114.04 K, Glass | 86.22
115.76 K, Glass | 87.69
116 K, Glass | 87.96
117.71 K, Glass | 89.53
119.67 K, Glass | 91.4
121.44 K, Glass | 93.27
121.62 K, Glass | 93.55
122.07 K, Glass | 94.36
123.27 K, Glass | 95.77
123.58 K, Glass | 95.92
125.24 K, Glass | 98.99
125.53 K, Glass | 98.88
127.2 K, Glass | 102.7
127.49 K, Glass | 103.22
129.14 K, Glass | 107.45
134.82 K, Liquid | 136.07
135.09 K, Liquid | 140.35
136.74 K, Liquid | 138.24
137.01 K, Liquid | 138.6
138.7 K, Liquid | 138.95
138.97 K, Liquid | 138.85
140.69 K, Liquid | 139.38
140.95 K, Liquid | 139.07
142.67 K, Liquid | 139.54
142.93 K, Liquid | 139.3
144.66 K, Liquid | 139.76
144.91 K, Liquid | 139.63
146.65 K, Liquid | 140.2
146.9 K, Liquid | 139.94
148.63 K, Liquid | 140.52
148.88 K, Liquid | 140.31
150.86 K, Liquid | 140.31
152.85 K, Liquid | 140.9
154.84 K, Liquid | 141.35
156.74 K, Liquid | 142.41
156.82 K, Liquid | 141.64
158.09 K, Liquid | 142.73
158.81 K, Liquid | 142.09
160.22 K, Liquid | 143.13
160.79 K, Liquid | 142.41
162.32 K, Liquid | 143.63
162.78 K, Liquid | 142.9
164.37 K, Liquid | 144.12
164.76 K, Liquid | 143.07
166.39 K, Liquid | 145.96
166.75 K, Liquid | 143.51
168.38 K, Liquid | 145.62
168.73 K, Liquid | 143.97
170.37 K, Liquid | 146.06
170.72 K, Liquid | 144.62
172.37 K, Liquid | 145.89
172.7 K, Liquid | 145.15
174.37 K, Liquid | 146.25
174.69 K, Liquid | 145.71
